This passage reports MIC and ED50 results from US4443436A, “C-20-Modified macrolide derivatives of the macrolide antibiotics tylosin, desmycosin, macrocin, and lactenocin” (Eli Lilly and Company, priority 1982, dated 1984).

In test [1] the test system is Staphylococcus epidermidis EPI2. The test is described as follows: MIC, standard agar-dilution assay, Staphylococcus epidermidis EPI2. The test is classed as cell-based.
The subject of test [2] is Mycoplasma gallisepticum. The test is described as follows: MIC, broth-dilution microtiter test, Mycoplasma gallisepticum. The test is classed as cell-based. As to conditions: Mycoplasma gallisepticum, broth-dilution microtiter. The text has this: (§1) The MIC's in Table X were obtained using conventional broth-dilution microtiter tests.
Test [3] relates to Streptococcus pyogenes C203. In words: MIC, standard agar-dilution assay, Streptococcus pyogenes C203. The format is cell-based.
The subject of test [4] is Staphylococcus aureus X1.1. In words: MIC, standard agar-dilution assay, Staphylococcus aureus X1.1. The format is cell-based.
Test [5] concerns Mycoplasma hyorhinis. In words: MIC, broth-dilution microtiter test, Mycoplasma hyorhinis. As to conditions: Mycoplasma hyorhinis, broth-dilution microtiter. The format is cell-based.
Text: as §1

The test system of test [6] is Mycoplasma hyopneumoniae. In words: MIC, broth-dilution microtiter test, Mycoplasma hyopneumoniae. The test is classed as cell-based. As to conditions: Mycoplasma hyopneumoniae, broth-dilution microtiter.
Text: as §1

Test [7] relates to Pasteurella multocida 60A. In words: MIC, broth-dilution microtiter test, Pasteurella multocida 60A. The format is cell-based.
Text: as §1

In test [8] the test system is Streptococcus bovis 80. In words: MIC, broth-dilution microtiter test, Streptococcus bovis 80. To be noted: Streptococcus bovis 80, broth-dilution microtiter. The test is classed as cell-based.
Text: as §1

For test [9], the system named is Staphylococcus aureus S13E. The test is described as follows: MIC, standard agar-dilution assay, Staphylococcus aureus S13E. The test is classed as cell-based.
Test [10] relates to Pasteurella hemolytica 22C. The test is described as follows: MIC, broth-dilution microtiter test, Pasteurella hemolytica 22C. The test is classed as cell-based.
Text: as §1

The test system of test [11] is Haemophilus influenzae Holt. The test is described as follows: MIC, standard agar-dilution assay, Haemophilus influenzae Holt. The test is classed as cell-based.
For test [12], the system named is Staphylococcus epidermidis EPI1. In words: MIC, standard agar-dilution assay, Staphylococcus epidermidis EPI1. The test is classed as cell-based.
Test [13] relates to Pasteurella multocida 17E. The test is described as follows: MIC, broth-dilution microtiter test, Pasteurella multocida 17E. The format is cell-based.
Text: as §1

The test system of test [14] is Streptococcus pyogenes C203. In words: In vivo protection of mice experimentally infected with S. pyogenes C203. As to conditions: Streptococcus pyogenes, mice, doses given 1 and 4 hours post-infection. The method, then:
The C-20 modified derivatives of this invention have shown in vivo antimicrobial activity against experimentally-induced infections in laboratory animals. When two doses of test compound were administered to mice experimentally infected with S. pyogenes C203, the activity observed was measured as an ED50 value [effective dose in mg/kg to protect 50% of the test animals: see Warren Wick, et al., J. Bacteriol. 81, 233-235 (1961)].

For test [15], the system named is Haemophilus influenzae R252. The test is described as follows: MIC, standard agar-dilution assay, Haemophilus influenzae R252. The test is classed as cell-based.
Test [16] relates to Streptococcus Group 9960. In words: MIC, standard agar-dilution assay, Streptococcus Group 9960. As to conditions: Streptococcus Group 9960, agar dilution. The format is cell-based. (In agar dilution, organisms are placed on agar that contains the substance at set levels.)
Test [17] relates to Staphylococcus aureus X400. The test is described as follows: MIC, standard agar-dilution assay, Staphylococcus aureus X400. The format is cell-based.
Test [18] relates to Staphylococcus aureus. The test is described as follows: MIC, broth-dilution microtiter test, Staphylococcus aureus. The test is classed as cell-based.
Text: as §1

In test [19] the test system is Staphylococcus aureus V41. In words: MIC, standard agar-dilution assay, Staphylococcus aureus V41. The format is cell-based.
For test [20], the system named is Streptococcus Group D X66. In words: MIC, standard agar-dilution assay, Streptococcus Group D X66. The test is classed as cell-based. As to conditions: Streptococcus Group D X66, agar dilution.
Test [21] relates to Streptococcus pneumoniae Park I. The test is described as follows: microbe, parasite or virus in culture. The test is classed as cell-based.
In test [22] the test system is Mycoplasma synoviae. In words: MIC, broth-dilution microtiter test, Mycoplasma synoviae. The test is classed as cell-based.
Text: as §1

The mark [23] stands for this setting: Staphylococcus epidermidis, EPI2.
[24] abbreviates: Mycoplasmoides gallisepticum, read-out: MIC.
[25] abbreviates: Mesomycoplasma hyopneumoniae, read-out: MIC.
Setting [26] is: Streptococcus equinus, read-out: MIC.

Structures are written as SMILES. ≈ marks a conversion by molar mass, not a printed value. Like-named read-outs stand apart in the source and are kept apart here. Where only a bound is given, the exact number is not on record here.

As to `CCC1OC(=O)CC(O)C(C)C(OC2OC(C)C(O)C(N(C)C)C2O)C(CCOC(C(F)(F)F)C(F)(F)F)CC(C)C(=O)C=CC(C)=CC1COC1OC(C)C(O)C(OC)C1OC` (centres unmarked) [Compound 32, 20-DH-20-O-[2,2,2-trifluoro-1-(trifluoromethyl)ethyl]desmycosin], the MIC in [1] (setting [23]) was 0.25 µg/mL (≈ 0.271 µM); in test [2] (setting [24]) it was 0.19 µg/mL (≈ 0.206 µM); in test [3] (Streptococcus pyogenes, C203) it was 0.5 µg/mL (≈ 0.541 µM); in test [4] (Staphylococcus aureus, X1.1) it was 0.5 µg/mL (≈ 0.541 µM); in [5] (read-out: MIC), greater than 50 µg/mL; in [6] (setting [25]), greater than 25 µg/mL. Besides, the MIC in [7] (Pasteurella multocida, 60A) stood at 50 µg/mL (≈ 54.1 µM); in [8] (setting [26]) it was 12.5 µg/mL (≈ 13.5 µM); in test [9] (Staphylococcus aureus, S13E) it was 0.5 µg/mL (≈ 0.541 µM); in test [10] (Pasteurella, 22C) it was 50 µg/mL (≈ 54.1 µM); in [11] (Haemophilus influenzae Holt, ampicillin-sensitive strain, read-out: MIC), 64 µg/mL (≈ 69.3 µM); in test [12] (Staphylococcus epidermidis, EPI1), 0.5 µg/mL (≈ 0.541 µM). The MIC in [13] (Pasteurella multocida, 17E) came out at 50 µg/mL (≈ 54.1 µM); in test [15] (Haemophilus influenzae, R252), 128 µg/mL (≈ 139 µM); in test [16] (GROUP9960, read-out: MIC) it was 32 µg/mL (≈ 34.6 µM); in test [17] (Staphylococcus aureus, X400) it was 0.5 µg/mL (≈ 0.541 µM); in test [18], 0.78 µg/mL (≈ 0.844 µM); in test [19] (Staphylococcus aureus, V41) it was 0.5 µg/mL (≈ 0.541 µM). Also, the results for the MIC in test [20] (read-out: MIC), in test [21] (Streptococcus pneumoniae) and in test [22] (Mycoplasmopsis synoviae) were 32 µg/mL (≈ 34.6 µM), 4 µg/mL (≈ 4.33 µM) and 1.56 µg/mL (≈ 1.69 µM), respectively. For the same molecule, the ED50 in test [14] (C203, sc, subcutaneous, read-out: ED50, Subcutaneous) was greater than 10 mg/kg; in [14] (C203, oral, read-out: ED50, Oral) it was 25 mg/kg.
Turning to `CCC1OC(=O)CC(O)C(C)C(OC2OC(C)C(OC3CC(C)(O)C(O)C(C)O3)C(N(C)C)C2O)C(CCOc2ccccc2)CC(C)C(=O)C=CC(C)=CC1COC1OC(C)C(O)C(O)C1OC` (centres unmarked) [Compound 53, 20-DH-20-O-Phenylmacrocin], the MIC is 2 µg/mL (≈ 2.04 µM) in test [1] (Staphylococcus epidermidis EPI2, agar dilution); less than 0.05 µg/mL in test [2]; 4 µg/mL (≈ 4.08 µM) in test [3] (Streptococcus pyogenes C203, agar dilution); 2 µg/mL (≈ 2.04 µM) in [4] (Staphylococcus aureus X1.1, agar dilution); 50 µg/mL (≈ 51 µM) in [5]; 0.78 µg/mL (≈ 0.796 µM) in test [6]. Also, the MIC is 12.5 µg/mL (≈ 12.8 µM) in test [7] (Pasteurella multocida 60A, avian isolate, broth-dilution microtiter); 6.25 µg/mL (≈ 6.38 µM) in [8]; 2 µg/mL (≈ 2.04 µM) in test [9] (Staphylococcus aureus S13E, agar dilution); 25 µg/mL (≈ 25.5 µM) in [10] (Pasteurella hemolytica 22C, broth-dilution microtiter); “-- (Not active at 128 mcg/ml, the highest level tested)” in test [11] (Haemophilus influenzae Holt, ampicillin-sensitive strain, agar dilution); 2 µg/mL (≈ 2.04 µM) in test [12] (Staphylococcus epidermidis EPI1, agar dilution). Further, the MIC is 25 µg/mL (≈ 25.5 µM) in test [13] (Pasteurella multocida 17E, bovine isolate, broth-dilution microtiter); “-- (Not active at 128 mcg/ml, the highest level tested)” in test [15] (Haemophilus influenzae R252, ampicillin-resistant strain, agar dilution); “-- (Not active at 128 mcg/ml, the highest level tested)” in test [16]; 4 µg/mL (≈ 4.08 µM) in test [17] (Staphylococcus aureus X400, methicillin-resistant strain, agar dilution); 0.39 µg/mL (≈ 0.398 µM) in [18] (broth-dilution microtiter); 2 µg/mL (≈ 2.04 µM) in test [19] (Staphylococcus aureus V41, penicillin-resistant strain, agar dilution). Also, the MIC entry in [20] was “-- (Not active at 128 mcg/ml, the highest level tested)”; in [21] (Streptococcus pneumoniae Park I, agar dilution) it was 32 µg/mL (≈ 32.6 µM); in test [22] (Mycoplasma synoviae, broth-dilution microtiter), 3.12 µg/mL (≈ 3.18 µM).
Regarding `CCC1OC(=O)CC(O)C(C)C(OC2OC(C)C(OC3CC(C)(O)C(O)C(C)O3)C(N(C)C)C2O)C(CCOc2ccc(OC)cc2)CC(C)C(=O)C=CC(C)=CC1COC1OC(C)C(O)C(OC)C1OC` (centres unmarked) [Compound 14, 20-DH-20-O-(p-Methoxyphenyl)tylosin], the MIC in [1] (setting [23]) is 1 µg/mL (≈ 0.976 µM); in test [2] (setting [24]), 0.78 µg/mL (≈ 0.762 µM); in test [3] (Streptococcus pyogenes C203, agar dilution, read-out: MIC), 1 µg/mL (≈ 0.976 µM); in [4] (Staphylococcus aureus X1.1, agar dilution, read-out: MIC), 0.5 µg/mL (≈ 0.488 µM); in test [5] (read-out: MIC), greater than 50 µg/mL; in test [6] (setting [25]), greater than 25 µg/mL. Besides, the MIC was greater than 50 µg/mL in test [7] (Pasteurella multocida 60A, avian isolate, broth-dilution microtiter, read-out: MIC); 25 µg/mL (≈ 24.4 µM) in test [8] (setting [26]); 1 µg/mL (≈ 0.976 µM) in test [9] (Staphylococcus aureus, S13E); greater than 50 µg/mL in [10] (Pasteurella hemolytica 22C, broth-dilution microtiter, read-out: MIC); 128 µg/mL (≈ 125 µM) in test [11] (Haemophilus influenzae); 2 µg/mL (≈ 1.95 µM) in test [12] (Staphylococcus epidermidis EPI1, agar dilution, read-out: MIC). Also, the MIC was greater than 50 µg/mL in [13] (Pasteurella multocida 17E, bovine isolate, broth-dilution microtiter, read-out: MIC); greater than 128 µg/mL in [15] (Haemophilus influenzae, R252); 128 µg/mL (≈ 125 µM) in test [16] (GROUP9960, read-out: MIC); 2 µg/mL (≈ 1.95 µM) in test [17] (Staphylococcus aureus X400, methicillin-resistant strain, agar dilution, read-out: MIC); 1.56 µg/mL (≈ 1.52 µM) in [18]; 0.5 µg/mL (≈ 0.488 µM) in test [19] (Staphylococcus aureus V41, penicillin-resistant strain, agar dilution, read-out: MIC). The MIC was found to be 128 µg/mL (≈ 125 µM) in test [20] (read-out: MIC); 8 µg/mL (≈ 7.81 µM) in test [21] (Streptococcus pneumoniae Park I, agar dilution, read-out: MIC); 6.25 µg/mL (≈ 6.1 µM) in test [22] (Mycoplasmopsis synoviae, Mycoplasma synoviae, broth-dilution microtiter, read-out: MIC).

A word on the ED50: it is the midpoint of the dose-response relation.
